Key:
cock's combs = assay: PDT of cock's comb, model of cutaneous vascular lesion (capillary hemangioma); assay type: in vivo, cocks
Excerpt: Animals Used: cocks (bodyweight: 2.5 to 3.5 kg) of 22 to 24 weeks old
Photosensitizer: talaporfin sodium
Laser Used Panalas6405, diode laser, wavelength: 664.5 nm±2 nm, output power: 75-500 mW
(§1) As the model of PDT to cutaneous vascular lesion (capillary hemangioma), cock's combs were used. Cock's comb is recognized as a model of cutaneous vascular lesion (capillary hemangioma) in this field. To each cock of 22 to 24 weeks old (bodyweight: about 2.5 kg), talaporfin sodium solution (concentration: 5 mg/ml) was intravenously injected from the brachial vein in an amount of 2.5 mg/kg bodyweight of the cock, in terms of the amount of talaporfin sodium. Immediately after the intravenous injection, the cock's comb was irradiated with a diode laser (wavelength: 664.5 nm±2 nm, irradiation power density: 127 mW/cm^2, energy density: 25 J/cm^2 or 50 J/cm^2). As an experimental group, (i) PDT-performed group was made, and as control groups, (ii) a group to which only the intravenous injection of talaporfin sodium was performed, and (iii) a group to which only laser irradiation was performed, were made. The mean plasma talaporfin sodium level at the end of the treatment was also measured.
Morphological changes during 7 days after the treatment were visually observed, and the cocks were subjected to autopsy 7 days after the treatment. Tissue preparations were stained by hematoxylin eosin staining by a conventional method, and as required, PTAH staining (fibrin staining) and AZAN staining (collagen fiber staining) were added.

[1] = Plasma talaporfin sodium level in cocks at the end of treatment; assay type: in vivo; conditions: 2.5 mg/kg intravenous, at end of laser treatment
Experimental: as §1

skin of the upper arm = assay: Safety tests to human: PDT on skin of the upper arm of normal individuals; assay type: in vivo
Experimental: (§2) To 2 normal individuals (Subject A: normal person, Subject B: normal person), talaporfin sodium was intravenously administered at a dose of 0.2 mg/kg. After the administration, the skin of the upper arm was irradiated with a diode laser (irradiation conditions: irradiation energy of 25 J/cm^2 and 50 J/cm^2 at an […] of 127 mW/cm^2, diameter of irradiated spots: 1 cm in both spots). Subject A was followed up for 2 weeks and Subject B was followed up for 2 months.

[2] = Plasma drug level in human after PDT; assay type: in vivo; conditions: from actually measured plasma level of Example 2
Experimental: as §2
Further, it was confirmed from the change with time of the plasma drug level measured after the PDT that the plasma level at which the photosensitive reaction no longer occurs is attained at 24 to 48 hours from the intravenous injection. This period of time is almost coincident with the period of time deduced from the model of pharmacokinetics, so that the correctness of the above-described estimated required shading time was confirmed.

[3] = PDT-performed group, autopsy 7 days after treatment
[4] = control group, only drug administration, no laser

Tetrasodium salt of mono-L-aspartyl chlorin e6 [talaporfin sodium]
histological findings: blood vessels in the dermis (hematoxylin eosin) (cock's combs; [3]): disappearance of vasodilated blood vessels in the dermis was observed
histological findings: hyperplasia of collagen fibers in the stroma (cock's combs; [3]): not observed
histological findings: stratum corneum epidermidis and stratum basale epidermidis in the irradiated site (cock's combs; [3]): the continuity of the stratum corneum epidermidis was maintained, and the stratum basale epidermidis was also conserved
histological findings: vascular endothelial cells in the dermis (highly magnified image) (cock's combs; [3]): disappearance of vascular endothelial cells was observed
visual findings: decoloration reaction (cock's combs; PDT-performed group: 2.5 mg/kg i.v. + diode laser 664.5 nm, 127 mW/cm^2, 25 or 50 J/cm^2, observed 7 days): decoloration reaction was observed at the site coincident with the irradiated site
histological findings (cock's combs; [4]): No changes were observed
visual findings: decoloration reaction (cock's combs; [4]): Decoloration reaction was not observed
mean plasma talaporfin sodium level at the end of treatment [1]: 2.3 µg/mL
edema in the irradiated sites and vicinities (skin of the upper arm; 0.2 mg/kg i.v. + diode laser 25 and 50 J/cm^2, from immediately after the PDT): slight edema was observed
erythema in the irradiated sites (skin of the upper arm; 0.2 mg/kg i.v. + diode laser 25 and 50 J/cm^2, up to 2 days after the treatment): slight erythema was observed
erythema in the irradiated sites (skin of the upper arm; 0.2 mg/kg i.v. + diode laser, one week after the treatment): the erythema had been disappeared
side effects at two months from the treatment (skin of the upper arm; Subject B, 0.2 mg/kg i.v. + diode laser): no side effects were observed
amount of talaporfin sodium needed in human for attaining the plasma level found in cocks (2.3 μg/mL) [2]: 0.2 mg/kg
